# Assay results taken from patent US11926645B2, “Compounds and methods for treatment of viral infections” (priority 2020, dated 2024).
# Legend:
# [1] = in vivo, po
# [2] = tested on: SARS-CoV-2 SA/2020 B.1.351; assay: microbe, parasite or virus in culture; type: cell-based; conditions: Severe acute respiratory syndrome coronavirus 2, Vero C1008
# [3] = tested on: SARS-CoV-2 hCoV-19/Japan/TY7-503/2021 (BZ/2021); type: in vivo
# SARS-CoV-2 (WA1) = type: in vivo, AGM
# in vitro = in vitro ADME, Human; conditions: human, s9, pH 7.4
# Description: Duplicate aliquots of test compound or positive control substrate (GS-7340) were added to S9 stock diluted with 100 mM phosphate buffered saline, pH 7.4, to obtain a protein concentration of 1.0 mg/mL. The S9 metabolic reactions were initiated by the addition of the substrates to the S9 reaction mixture to a final concentration of 2 μM. At 0, 10, 20, 30, 60 and 120 min, 25 μL aliquots of the reaction mixture were transferred to plates containing 225 μl of IS/Q solution. After quenching, the plates were centrifuged at 3000×g for 30 minutes, and 150 μL aliquots of each supernatant were diluted with 150 μL water. Aliquots (10 μL) of the diluted supernatant were analyzed on a Thermo Q-Exactive mass spectrometer as described below.
# Quantification of test compounds and controls was performed by analyte/internal standard peak area ratio (PAR) values measured on a Thermo Q-Exactive mass spectrometer coupled to a Dionex UltiMate 3000 HPLC with a Leap Technologies HTC PAL autosampler. The column used was a Thermo Hypersil GOLD (1.9 μm particle size, 2.1×50 mm). Mobile phase A consisted of 0.1% (v/v) formic acid in water. Mobile phase B consisted of 0.1% (v/v) formic acid in acetonitrile. Elution of analytes was achieved by a series of linear gradients of acetonitrile in water containing 0.1% (v/v) formic acid. The mass spectrometer was calibrated on a weekly basis and mass tolerance of 5 ppm was used.
# SARS-CoV-2 CA/2020 = assay: microbe, parasite or virus in culture; type: cell-based; conditions: Severe acute respiratory syndrome coronavirus 2, Vero C1008
# CES1 = target: T1, CES1 (Homo sapiens, UniProt P23141); assay: CES1/2 stability, CES1; type: in vitro ADME; conditions: CES1 Supersome preparation; Supersome preparations, CES 1.5 mg/ml, 2 μM substrate, pH 7.4, 37° C.; read-out: CES1 T1/2
# T1 construct: purchased
# T1 sequence (P23141 18-567): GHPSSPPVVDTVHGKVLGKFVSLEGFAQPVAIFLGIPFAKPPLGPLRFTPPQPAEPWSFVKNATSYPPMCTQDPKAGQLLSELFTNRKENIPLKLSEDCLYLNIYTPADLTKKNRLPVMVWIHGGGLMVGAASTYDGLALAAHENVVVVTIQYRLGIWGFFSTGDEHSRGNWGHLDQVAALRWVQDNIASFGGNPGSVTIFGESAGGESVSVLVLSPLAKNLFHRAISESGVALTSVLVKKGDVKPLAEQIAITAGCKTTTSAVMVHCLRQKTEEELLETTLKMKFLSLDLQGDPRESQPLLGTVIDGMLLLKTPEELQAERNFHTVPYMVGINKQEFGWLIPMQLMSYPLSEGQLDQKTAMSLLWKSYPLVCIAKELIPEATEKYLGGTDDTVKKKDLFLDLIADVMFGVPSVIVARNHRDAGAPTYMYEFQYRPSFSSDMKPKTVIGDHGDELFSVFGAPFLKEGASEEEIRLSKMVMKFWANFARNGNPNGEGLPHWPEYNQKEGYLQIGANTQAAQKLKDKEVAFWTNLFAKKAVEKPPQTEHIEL
# Description: Test compounds or positive control substrates (oseltamivir for CES1 enzymes or procaine for CES2) were incubated with individual Supersome preparations (final CES concentration 1.5 mg/ml) in 0.1 M potassium phosphate buffer (pH 7.4) at 37° C. Substrates were added to a final concentration of 2 μM to initiate the reaction. The final incubation volume was 250 μL. Aliquots were removed after incubation for 0, 10, 30, 60 and 120 min. The reactions were stopped by the addition of IS/Q. Following protein precipitation and centrifugation, 150 μL of supernatant was diluted with an equal volume of water prior to LC-MS analysis. For procaine 150 μL of supernatant was dried down and reconstituted with 250 μL water. All samples were analyzed by LC-MS and the PAR values were used for quantification.
# SARS-CoV-2 WA1/2020 A = assay: microbe, parasite or virus in culture; type: cell-based; conditions: Severe acute respiratory syndrome coronavirus 2, Vero C1008
compound,measurement,setting,value
"CC(C)C(=O)OC[C@H]1O[C@@](C#N)(c2ccc3c(N)ncnn23)[C@H](OC(=O)C(C)C)[C@@H]1OC(=O)C(C)C [Compound 1, (2R,3R,4R,5R)-2-(4-aminopyrrolo[2,1-f][1,2,4]triazin-7-yl)-2-cyano-5-((isobutyryloxy)methyl)tetrahydrofuran-3,4-diyl bis(2-methylpropanoate)]",anabolism to bioactive Reference Compound B (in words),[1],efficient anabolism to bioactive Reference Compound B
same,EC50,[2],110 nM
same,Infectious viral particles in nasal turbinates of contact animals,"[3]; […], 5.5 days after initiation of co-housing",absent
same,Shedding of infectious particles or viral RNA by contacts of treated source ferrets,"[3]; […], source animals oral 10 mg/kg b.i.d.",None of the contacts of treated source ferrets shed infectious particles or viral RNA at any time
same,Viral RNA in nasal turbinates of the contact animals,[3]; in vivo,< 10^5 copies/g nasal turbinate
same,Lowering of viral RNA copies in nasal lavages and turbinates,"[3]; in vivo, po, 10 mg/kg",over three orders of magnitude
same,Shed virus burden (nasal lavage),"[3]; in vivo, po, 10 mg/kg",undetectable
same,Tissue titers (nasal turbinates),"[3]; in vivo, po, 10 mg/kg",undetectable
same,Infectious SARS-CoV-2 titers versus vehicle,"SARS-CoV-2 (WA1); AGMs, PO 60 or 120 mg/kg QD, days 2-6",trended lower than the vehicle group
same,Viral RNA loads in lower lung tissue versus vehicle,"SARS-CoV-2 (WA1); AGMs, PO 60 or 120 mg/kg QD, terminal day 6",trended lower
same,mean SARS-CoV-2 gRNA in BALF versus vehicle,"SARS-CoV-2 (WA1); in vivo, po",significantly reduced
same,SARS-CoV-2 gRNA in BALF versus vehicle,"SARS-CoV-2 (WA1); in vivo, po, 60 mg/kg",significantly lower than vehicle animals
same,half-life at 2 μM,in vitro,0.37 min
same,EC50,SARS-CoV-2 CA/2020,210 nM
same,half-life at 2 μM,CES1,< 1 min
same,EC50,SARS-CoV-2 WA1/2020 A,730 nM
